The text below walks through data of a melting point compilation (Tetko et al.; mined from patent text by program, amines drawn as free bases though some values may be those of a salt).

As to `O=C1c2ccccc2C(=O)c2oc(-c3ccccc3F)nc21`, the melting point – broadly, the temperature of the solid-liquid transition – is above 260 °C.

Consider `O=C(O)CCC1(c2cccs2)SCCS1`, for which the melting point was in the range of 55 to 64 °C.

Molecule `O=C1C=Cc2ccccc2C1(Cc1ccncc1)Cc1ccncc1` had a melting point of 111 to 112 °C.

Consider `CCOC(=O)c1c(Nc2ccccc2SC)n[nH]c1C`, for which the melting point fell in the range of 135 to 158 °C.

The molecule `CN1CC=C(C(=O)N2c3ccccc3C(=O)Nc3cccc(Cl)c32)CC1` gave a melting point of 296 °C.

Regarding `Cc1nc2ccc(N)cc2c(=O)n1C1CCC(=O)NC1=O` (stereo unspecified), the melting point was in the range of 314 to 316 °C.

For `COc1cc(-c2ccc(Cl)cc2)nc2c(C(=O)Nc3cccc(S(C)(=O)=O)c3)cnn12`, the melting point was 265 °C.

In turn, `CCOC(=O)CCC(=O)CSc1nc2cc(Cl)c(F)cc2c(O)c1C(=O)OCC` returned a melting point of 144 °C.

The molecule `Cc1oc(-c2ccccc2)nc1COc1ccc(CON=C(CCC(=O)O)c2ccc(F)cc2)cc1` yielded a melting point of 139 to 140 °C.

`Cc1cc(Br)cnc1CCCCNC1=NS(=O)N=C1NCc1ccccc1` (stereo unspecified) displayed a melting point of 175 to 176 °C.

In the case of `COc1c(C#N)c(C)cc2c1C(C)(C)CCC2(C)C`, the melting point fell in the range of 71 to 73 °C.

`CC(C)c1ccc(-n2nc(O)c3[nH]c4cc(Cl)ccc4c(=O)c3c2=O)cc1` returned a melting point of 323 to 326 °C.

`COc1ccc2cc(C3(O)CN4CCC3CC4)ccc2c1` (racemic) came in with a melting point above 330 °C.

The molecule `COC1(N2CCCC2)C=CC=C(c2cnc3[nH]cc(C(=O)C(C)(C)C)c3n2)C1` (stereo unspecified) showed a melting point of 245 to 256 °C.

On to `COc1cc(Nc2c(C#N)cnc3cc(-c4ccc(CN(CCO)CCO)o4)ccc23)c(Cl)cc1Cl`, for which the melting point lay in the range of 155 to 160 °C.

`CCC1C(C)=NN=C(c2ccccc2C)c2cc(OC)c(OC)cc21` (stereo unspecified) had a melting point of 170 to 171 °C.

Molecule `NNc1cc(-c2ccnc(Nc3cccc(Cl)c3)n2)ccn1` gave a melting point of 201 to 203 °C.

`COC(=O)CNC(=O)c1cc2cc(Cl)ccc2[nH]1` yielded a melting point of 252 to 254 °C.

`CCOC(=O)CNc1c(C#N)cnn1-c1ccc(C(F)(F)F)cc1Cl`: the melting point lay in the range of 100 to 102 °C.

As to `CNC(=O)C(=Cc1cccc(-c2ccc(C)c(C)c2)c1)NC(C)=O`, the melting point is 224 °C.

`Clc1ccc(-c2ccc(Br)cc2)nn1` displayed a melting point of 201 to 203 °C.

In turn, `CCC1(CC)C(=O)N(C(C)(C)C)CC(C)(C)N1OC(=O)Nc1ccccc1` registered a melting point of 160 to 163 °C.

Molecule `Nc1nc2c(s1)CCc1nc3ccccn3c1-2` displayed a melting point of 249 °C.

`Nc1ncnc2c1ncn2C1CC(C=Cc2ccccc2)C(CO)O1` (stereo unspecified) came in with a melting point of 215 to 217 °C.

On to `CCC(=O)Cc1cc(OC2CCCC2)ccc1NC(=O)OC(C)(C)C`, for which the melting point was 71 to 73 °C.

`CCOC(=O)c1cc(-n2c(=O)c(C)c(C)n(C)c2=O)ccc1Cl` had a melting point of 159 to 161 °C.

With `O=c1c2ccccc2nc(-c2cc(-c3ccc(Cl)cc3)c(N3CCOCC3)s2)n1-c1ccccc1Cl`, the melting point was in the range of 215 to 217 °C.

`CCc1nc(C)c(/C=C(\NC(=O)c2ccc(C(=O)NCc3cccc(O)c3)cc2Cl)C(=O)O)s1` registered a melting point above 200 °C.

In the case of `COC(=O)/C(=C/C=C/c1cc2cc(Cl)ccc2[nH]1)OC`, the melting point is 166 to 168 °C.

Regarding `COC(=O)c1cc2cc(CBr)ccc2s1`, the melting point fell in the range of 108 to 110 °C.

Molecule `COc1ccccc1Oc1cccc(CC(=O)O)c1OC` returned a melting point of 121 to 122 °C.

In turn, `COc1cc(N(C)C)c(Cl)cc1C(=O)NC1CCN(Cc2ccc(F)cc2)C1` (stereo unspecified) showed a melting point of 139 to 141 °C.

As for `COC(=O)c1cccc(-c2nnc(-c3ccc(-c4cccc(C)c4)cc3)o2)c1`, the melting point lay in the range of 147 to 148 °C.

Molecule `COc1ccc(S(=O)(=O)Nc2cccc(C)c2NC(=O)c2ccccn2)cc1` came in with a melting point of 180 to 182 °C.

In turn, `CCCCC(Cc1ccc(OCCNC(=O)c2ccc(O)nc2)cc1)C(=O)O` (stereo unspecified) had a melting point of 69 to 71 °C.

In the case of `O=C1CC(NC(=O)c2ccc3nc[nH]c3c2)CCCN1` (stereo unspecified), the melting point is 297 to 299 °C.

Molecule `CC(C)(C)OC(=O)NC1CCCCc2cc(OCC3CCCCC3)c(C(=O)O)cc21` (stereo unspecified) returned a melting point of 159 to 160 °C.

Consider `CN1CC(CCCl)Oc2cc3ccccc3cc2C1=S` (stereo unspecified), for which the melting point lay in the range of 166 to 168 °C.

Turning to `CC(=O)N(Cc1cccs1)C1(c2ccc(Cl)cc2)CCC1`, the melting point lay in the range of 105 to 108 °C.

`CC(CCCC(C)(C)Cl)C1CC=C2C3=C(CCC21C)C1(C)CCC(O)C(C)(C)C1CC3` (stereo unspecified): the melting point fell in the range of 131 to 133 °C.

Turning to `C[C@H]1CCCN(C(=O)Cc2ccc(Cl)c(Cl)c2)[C@H]1CO` (relative stereo), the melting point fell in the range of 161 to 162 °C.

In the case of `Cc1nc2cc3c(cc2[nH]1)C(C)(C)CC(=O)N3`, the melting point lay within 290 to 294 °C.

With `O=C(O)C1C(c2ccc3c(c2)OCO3)c2ccccc2C1c1ccc2c(c1)OCO2` (racemic), the melting point lay within 182 to 185 °C.

For `NC(CO)(CO)CCCCCCCCCCCCCc1ccccc1`, the melting point lay in the range of 61 to 64 °C.

As to `c1ccc(COc2ccc(COc3ccc(CCCn4ccnc4)cc3)cn2)cc1`, the melting point lay within 84 to 85 °C.

In turn, `COC(=O)CN(C)C(=O)CC(Cc1cccc2ccccc12)C(=O)NC(Cc1c[nH]cn1)C(=O)NC(CC(C)C)C(O)C(=O)OC(C)C` (mixture of isomers) displayed a melting point of 76 to 80 °C.

Consider `CCCCCCS(=O)(=O)c1nn2c(=O)c(Cl)c(F)nc2s1`, for which the melting point is 185 to 188 °C.

`COC(=O)C12COc3cc(C(F)(F)F)ccc3C1=NN(C(=O)N(C)c1ccc(C(F)(F)F)cc1)C2` (stereo unspecified) yielded a melting point of 105 to 111 °C.

Take `Nc1ccc(F)cc1C(=O)c1ccccc1`: the melting point is 112 to 113 °C.

`CCCCCCCCCCCCCCCCCCOc1ccc(C(=O)C(=O)N(CC(=O)O)CC(=O)O)cc1` showed a melting point of 130 to 132 °C.

For the molecule `CN(CCN(O)C(N)=O)Cc1cccc(Oc2ccc(Cl)cc2)c1`, the melting point lay within 111 to 113 °C.

The molecule `O=Cc1cc([N+](=O)[O-])c(Cl)cc1Cl` gave a melting point of 61 to 63 °C.

The molecule `CCc1cc2c(s1)N=C(NNC(=O)NC)CN=C2c1ccccc1Cl` displayed a melting point of 213 to 215 °C.

`O=C(Nc1ccc2nc(CN3CCCC3)ccc2c1)c1ccc(-c2ccc(Cl)cc2)nc1` returned a melting point of 225 to 227 °C.

As for `COC(c1ccccc1)c1nc2c(N)nc3ccccc3c2n1CC(C)C` (stereo unspecified), the melting point lay in the range of 183 to 184 °C.

In turn, `CC1CCN(C=Nc2ccc3c(c2)C(=O)c2ccc(N=CN4CCC(C)CC4)cc2C3=O)CC1` had a melting point of 229 to 233 °C.

Consider `CCCCCC(c1nccn1CC(=O)O)n1cnc2cc(-c3ccccc3-c3nn[nH]n3)ccc21` (stereo unspecified), for which the melting point lay in the range of 150 to 160 °C.

With `Cc1[nH]cnc1/C=C/C(=O)c1c(C)oc2ccccc12`, the melting point was 166 to 168 °C.

With `O=C(Nc1ccc(Cl)cc1)NS(=O)(=O)c1ccc2c(c1)CCO2`, the melting point fell in the range of 190 to 194 °C.

For the molecule `Cc1nccc2c1[nH]c1cc(O)ccc12`, the melting point came out at 248 °C.

Molecule `Cn1cc(-c2cccc(N3Cc4cc(C(C)(C)C)ccc4C3=O)c2CO)nc(Nc2cnn(C3CC3)c2)c1=O` showed a melting point of 218 to 219 °C.

Regarding `COc1ccc2[nH]cc(CC(C)(C)N)c2c1`, the melting point is 114 to 116 °C.

The molecule `O=C(CNc1ccc(O)cc1)N1CCC(Cc2ccccc2)CC1` returned a melting point of 138 to 140 °C.

Regarding `COc1nc2ccccc2nc1NC(=O)N1CCN(c2ccccc2F)CC1`, the melting point is 142 to 144 °C.

In turn, `COc1ccccc1Nc1nc2c(-c3ccc(C(F)(F)F)cc3)cccn2n1` returned a melting point of 184 to 186 °C.

`C#CCOc1nc(C(F)(F)F)cc(=O)n1-c1cc(C(=O)OC(C)C)c(Cl)cc1F` yielded a melting point of 117 to 119 °C.

In turn, `COc1cc2c(cc1N1CCN(CC3Cc4ccccc4C3)CC1)OC=CCO2` registered a melting point of 120 to 122 °C.

Consider `C[Si](C)(CCCc1nnc(N)nc1N)c1ccccc1`, for which the melting point lay within 132 to 133 °C.

Consider `Cc1ccc(C2Sc3ccccc3NC(=O)C2COS(C)(=O)=O)cc1` (stereo unspecified), for which the melting point came out at 207 °C.

In the case of `O=C(NCCOc1ncc(C(F)(F)F)cc1Cl)c1cc([N+](=O)[O-])ccc1Cl`, the melting point was 126 to 127 °C.

In the case of `COc1ccc(N2CCN(c3c(C)c(C)c4c(c3C)CC(C)(CN(Cc3ccccc3)Cc3ccccc3)O4)CC2)cc1` (stereo unspecified), the melting point lay within 168 to 170 °C.

As for `Cc1c(C)c2c(c(C)c1NC(=O)N1CCCC1)C(c1ccc(C(C)C)cc1)CO2` (stereo unspecified), the melting point fell in the range of 186 to 188 °C.

The molecule `Nc1ccc2ccc(N)nc2n1` registered a melting point of 222 to 223 °C.

Regarding `CC(C)(C)OC(=O)NC(C)(COCc1ccccc1)C(=O)O` (stereo unspecified), the melting point fell in the range of 112 to 114 °C.

`Cc1csc(Nc2nc(C(C)(C)C)c(O)c(C(C)(C)C)n2)n1` came in with a melting point of 171 to 173 °C.

`COC(=O)C1=C(Cl)/C(=N/OS(=O)(=O)c2ccc(C)cc2)CC(c2ccc(Cl)c(OC)c2F)N1` (stereo unspecified) had a melting point of 62 to 64 °C.

The molecule `Cc1cc(C)cc(-c2c(O)c3ccc(Cl)cc3[nH]c2=O)c1` yielded a melting point of 369 °C.

`CCOC(=O)C(C(=O)N(C)C)=C(OC(=O)c1ccccc1)c1ccc(Cl)cc1Cl` showed a melting point of 106 °C.

Molecule `COc1ccccc1NC(=O)Nc1nc(N2CCOCC2)nc(N(CCC(=O)O)Cc2ccc(Cl)c(Cl)c2)n1` returned a melting point of 198 to 203 °C.

`CC(=O)N1CCc2[nH]c3cc(-n4ccc(OCc5ccccc5)cc4=O)ccc3c2CC1` showed a melting point of 250 to 254 °C.

`COc1cc2ncnc(Nc3ccc(OCc4ccccn4)c(C)c3)c2cc1O` yielded a melting point of 234 to 235 °C.

As for `FC(Sc1nnc(-c2ccc(Cl)cc2)s1)=C(F)C(F)(F)F`, the melting point was in the range of 69 to 70 °C.

Regarding `CCN(CCc1ccccc1OCc1ccccc1)c1ccc(C(=O)O)cc1`, the melting point was determined as 175 °C.

In the case of `Cn1cc(C(=O)O)c(=O)c2cc3cc(F)c(N4CCNC(c5ccco5)C4)c(F)c3nc21` (racemic), the melting point lay in the range of 295 to 296 °C.

`CCOC(=O)c1ccc(NCCCc2ccccc2OC)cc1` returned a melting point of 106 to 109 °C.

`CC1(C)NC(=O)N(CC(O)Cc2cc(C(C)(C)C)c(O)c(C(C)(C)C)c2)C1=O` (stereo unspecified) registered a melting point of 175 to 176 °C.
